This is an account of results in patent publication US20070184175A1, “CONTINUOUS PRODUCTION OF CEREAL FLOUR AND WHOLE-CEREAL FLOUR FOR GRAIN-BASED FOODS, USING A LOW-MOISTURE PRECOOKING” (priority 2005, published 2007).

For data set [1] the following is noted: Davalos et al. (2004); cited from earlier work.
Details of data set [2]: concentration or dose not given beside the values. Particulars: Kikuzaki et al. (2002); cited from earlier work.
For data set [3] the following is noted: concentration of Trolox solution with equivalent antioxidant capacity to a 1 mM concentration of the compound; cited from earlier work.
The conditions of data set [4]: ingestion or topical applications; cited from earlier work.
The nature of data set [5]: ABTS radical scavenging assay. In kind it is biochemical. Particulars: Intasa-Chromadex analytical test report, 2006; gallic as positive-control. Here is the method: Kikuzaki et al. (2002) previously published the DPPH radical-scavenging and increasing inhibition effects of ferulic, oryzanol (steryl-ferulate), BHT, α-tocopherol (Trolox) and gallic acid (27%<21%<29%<42%<76%). A TEAC test was defined as the concentration of Trolox solution with equivalent antioxidant capacity to a 1 mM concentration of the compound (Rice-Evans et al. 1996). Similar increasing values were found for α-tocopherol (Trolox), caffeic, ferulic and gallic acid (1.0<1.3<1.9<3.0). It also reflects the ability of hydrogen-donating antioxidants to scavenge the ABTS-radical). However, Davalos et al. (2004) used a different ORAC-FL (Oxygen radical absorbance capacity) test which described the μmol trolox equivalents per μmol of pure compound: BHA (synthetic), ferulic and protocatechuic (similar to gallic) with increasing values of 2.4, 4.5 and 6.7, respectively. This latter assay has been largely applied to assess free radical scavenging capacity of human plasma, proteins, DNA, pure antioxidant compounds and new antioxidants from plant and food extracts (Prior et al. 1999).

For `COc1ccc(O)c(C(C)(C)C)c1` [BHA], the ORAC-FL in data set [1] is 2.4 μmol trolox equivalents per μmol of pure compound.

Consider `Cc1cc(C(C)(C)C)c(O)c(C(C)(C)C)c1` [BHT], for which the “DPPH radical-scavenging inhibition effect” value in data set [2] is recorded as 29%.

Take `O=C(O)/C=C/c1ccc(O)c(O)c1` [caffeic]: the TEAC in data set [3] is 1.3.

In the case of `COc1cc(/C=C/C(=O)O)ccc1O` [ferulic, ferulic acid], the ORAC-FL in data set [1] is listed as 4.5 μmol trolox equivalents per μmol of pure compound. Moreover, the “DPPH radical-scavenging inhibition effect” value in data set [2] is listed as 27%. In data set [3], the TEAC is 1.9. Also, in data set [4], the “acute or chronic side effects” value was “No acute or chronic side effects”. Moreover, the “IC50 or 50% inhibition value, ABTS radical scavenging” value in data set [5] is recorded as 3.3 ppm.

With `O=C(O)c1cc(O)c(O)c(O)c1` [gallic, gallic acid], the “DPPH radical-scavenging inhibition effect” value in data set [2] is on record as 76%. For the same compound, the TEAC in data set [3] is given as 3.0. The “IC50 or 50% inhibition value, ABTS radical scavenging” value in data set [5] is given as 1.5 ppm.

Regarding `O=C(O)c1ccc(O)c(O)c1` [protocatechuic], in data set [1], the ORAC-FL is on record as 6.7 μmol trolox equivalents per μmol of pure compound.

For `Cc1c(C)c2c(c(C)c1O)CC[C@@](C)(CCC[C@H](C)CCC[C@H](C)CCCC(C)C)O2` [α-tocopherol (Trolox), α-tocopherol], the “DPPH radical-scavenging inhibition effect” value in data set [2] was 42%. Further, in data set [3], the TEAC is listed as 1.0.

As to oryzanol, the “DPPH radical-scavenging inhibition effect” value in data set [2] was 21%.
